{
  "source": "patent US10561638B2",
  "about": "“Methods for treating dependence” (Biotie Therapies, Inc., priority 2007, dated 2020)",
  "key": {"[1]": {"system": "plasma dopamine/norepinephrine ratio, urinary dopamine", "test": "Plasma and urinary catecholamines in normal volunteers", "format": "in vivo, human", "description": "Nepicastat reduces the conversion of dopamine to norepinephrine. Basic tests for nepicastat activity measure the levels of plasma or urinary dopamine or the ratio of dopamine to norepinephrine. Nepicastat treatment can increase plasma or urinary levels of dopamine or increase the dopamine/norepinephrine ratio in plasma or urine.\nShown in FIG. 5, are the levels in urinary dopamine levels in normal volunteers after 24 hour treatment with nepicastat.\nUrinary dopamine levels increased after 10 days of dosing with both 40 mg and 200 mg of nepicastat."}, "[2]": {"system": "left ventricle norepinephrine and dopamine levels", "test": "Left ventricle catecholamines after two i.v. doses", "format": "in vivo, Sprague-Dawley rats", "details": "15 mg/kg iv x2, left ventricle", "description": "The purpose of this study was to determine the effects of intravenous administration of nepicastat (hereafter referred to as nepicastat) on the levels of dopamine and norepinephrine in the left ventricle in Sprague-Dawley rats. Animals received two intravenous (iv) administrations, 12 hours apart, of either vehicle (75% propylene glycol+25% DMSO; 1.0 ml/kg) or 15 mg/kg of nepicastat. Tissue norepinephrine and dopamine levels were measured six hours after the last compound administration.\nSixteen to 17 week old male Sprague-Dawley rats, weighing 300-400 grams, were allowed food and water ad libitum. Animals were weighed and randomly assigned, the afternoon before the study, to one of the following treatment groups (n=10 per group): vehicle (1.0 ml/kg) or nepicastat at 15 mg/kg.\nEach rat was dosed iv in the tail vein the afternoon before harvest. The dosing was repeated 12 hours later the following morning. Six hours after the final administration rats were anesthetized with halothane, decapitated, and the left ventricle was rapidly harvested and weighed. The ventricle was placed in 1.0 ml iced 0.4 M perchloric acid. Tissues were immediately frozen in liquid nitrogen and stored at −70° C. Tissue dopamine and norepinephrine concentrations were assayed by high performance liquid chromatography using electrochemical detection.\nA one-way analysis of variance (ANOVA) with a main effect for treatment was performed for norepinephrine. A Kruskal-Wallis was performed for dopamine and their ratio primarily due to heterogeneous variances among treatment groups. Subsequent pairwise comparisons between nepicastat treated rats and vehicle were performed using Fisher's LSD test. A Bonferroni adjustment was performed on all p-values to ensure an overall experiment-wise type 1 error rate of 5%."}, "[3]": {"target": "all other receptors examined", "test": "Radioligand filtration binding (Example 19)", "description": "(§1) The affinity of nepicastat was determined in the bindings assays outlined using standard radioligand filtration binding methods were used. Competition binding data were analyzed by iterative curve fitting to a four parameter logistic equation. Hill coefficients and IC50 were obtained directly. pKi (−log of Ki) of competing ligands were calculated from IC50 values using the Cheng-Prusoff equation."}, "[4]": {"target": "alpha1 receptors", "test": "Radioligand filtration binding (Example 19)", "description": "as §1"}, "[5]": {"test": "Plasma and tissue compound levels in dogs", "format": "in vivo, beagle dogs", "description": "Male Beagle dogs (Marshall farms, North Rose, N.Y.) weighing between 9-16 kg were used in the study. The animals were allowed water ad libitum and given food once daily at ˜10.00 AM. Animals were randomly assigned to one of the following treatment groups (n=8/group): placebo (empty capsule), or nepicastat at 2 mg/kg b.i.d (4 mg/kg/day). Each animal received 2 doses daily, morning and afternoon (8-10 hours apart). Daily blood samples (10 ml) were drawn 6 h after the AM dose for measurement of plasma levels of nepicastat and catecholamines. The blood was collected in tubes containing heparin and glutathione and centrifuged at −4° C. within 1 h of collection. The plasma was separated and divided into two samples, one for the measurement of plasma catecholamines and the other for analysis of nepicastat.\nPlasma norepinephrine (NE), dopamine (DA) and epinephrine (EPI) were analyzed by HPLC using electrochemical detection. Plasma concentration of nepicastat was determined by HPLC using electrochemical detection.\nThirty-two male beagle dogs, weighing 10-12 kg, were randomly assigned to one of the following 4 treatment groups (n=8 per group): nepicastat at 0 mg/kg/day (placebo), 10 mg/kg/day (5 mg/kg b.i.d.), 30 mg/kg (15 mg/kg b.i.d.), or 60 mg/kg/day (30 mg/kg b.i.d.). Dog numbers 1-16 were assigned as dose group A and dog numbers 17-32 as dose group B. The terminal surgery for tissue harvest was performed over 2 days with 16 animals studied per day. Two or 3 days before the first compound administration each dog was weighed and skin regions overlying both cephalic, saphenous and jugular veins were shaved. Dosing consisted of oral administration of one capsule with the second given 8-10 hr later. Dogs were dosed as scheduled on days 1-3. On day 4, prior to the AM dose, 3 ml of blood were obtained from a jugular vein for determination of baseline plasma compound levels. The dog was then administered the AM dose, and at 1, 2, 4 and 8 hr following the dose additional 3 ml blood samples were collected for determination of plasma compound levels. […]"}},
  "data": [
    {"smiles": "Cl.NCc1c[nH]c(=S)n1[C@H]1CCc2c(F)cc(F)cc2C1", "note": "[nepicastat, (S)-5-Aminomethyl-1-(5,7-difluoro-1,2,3,4-tetrahydronaphth-2-yl)-2,3-dihydro-2-thioxo-1H-imidazole hydrochloride]", "values": [
      {"measurement": "urinary dopamine levels", "setting": "[1]; 40 mg and 200 mg, after 10 days of dosing", "result": "increased"},
      {"measurement": "mean supine plasma dopamine/norepinephrine ratio vs placebo", "setting": "[1]; 200 mg", "result": "significant increase"},
      {"measurement": "decrease in norepinephrine levels", "setting": "[2]", "result": 51, "unit": "%"},
      {"measurement": "increase in dopamine levels", "setting": "[2]", "result": 472, "unit": "%"},
      {"measurement": "increase in dopamine/norepinephrine ratio", "setting": "[2]", "result": 1117, "unit": "%"},
      {"measurement": "pKi", "setting": "[3]", "result": "< 6.2"},
      {"measurement": "pKi", "setting": "[4]", "result": "6.9-6.7"},
      {"measurement": "time of peak plasma levels of the drug", "setting": "[5]; 2 mg/kg bid, sampled 6 h after AM dose", "result": 2, "unit": "days post-dose"},
      {"measurement": "dose proportionality of nepicastat concentration in plasma and tissue", "setting": "[5]; 10, 30, 60 mg/kg/day, Day 4 and Day 5", "result": "dose-proportional"},
      {"measurement": "levels of nepicastat in tissues vs plasma", "setting": "[5]; Day 5, all tissues examined", "result": "higher than those in plasma"}
    ]}
  ]
}
